One assay concerns fibroblasts. Put plainly: Half maximal uptake (Kuptake) of alpha-glucosidase into fibroblasts. The format is cell-based.
In assay [1] the test system is antibody titer to rh-alpha-glucosidase (rhGAA). The experiment in a line: ELISA antibody titer to rhGAA in canines on weekly rhGAA infusions. The format is in vivo, canine. On the procedure:
Enzyme Infusions. […] Infusions were performed with 0.056 mg/kg/week recombinant human alpha glucosidase in a 50 mL infusion of saline and 10 mM NaPO4, pH 5.8. […] Animals were monitored for anaphylactic reaction.
(In an ELISA, binding on a coated surface is turned into a signal by an enzyme label.)

The mark [2] stands for this setting: control canine ST, no drug treatment.

As for “rhGAA: recombinant human alpha-glucosidase, lysosomal enzyme being developed to treat Pompe disease”, in the assay with fibroblasts, the “Kuptake (enzyme concentration at half maximal uptake)” value was “about 1 nanomolar”. Further, the “Antibody levels to rhGAA at the highest point” value in assay [1] (0.056 mg/kg/week iv rhGAA, weeks 1-12) is recorded as over 150 OD Units. In assay [1] (setting [2]), the “titer by week 4” value was “more than 100 OD units per microliter of serum” and the “titer subsequently (after week 4)” value is recorded as 100-200 units per microliter of serum. The “higher titer of control dog by week 5” value in assay [1] (control vs treated dog) came out at 100 fold.
